Experimental data from ChEMBL document CHEMBL2069166, “β-Lactones Inhibit N-acylethanolamine Acid Amidase by S-Acylation of the Catalytic N-Terminal Cysteine” (ACS Med Chem Lett, 2012).
Activity calls are given as the source filed them. The calls are words filed in the database; no cut-off is given here.

Experiments:
[1] = target: T1, N-acylethanolamine-hydrolyzing acid amidase (Homo sapiens) (UniProt Q02083); details: HEK293, 10 to 30 nM
T1 sequence (whole entry): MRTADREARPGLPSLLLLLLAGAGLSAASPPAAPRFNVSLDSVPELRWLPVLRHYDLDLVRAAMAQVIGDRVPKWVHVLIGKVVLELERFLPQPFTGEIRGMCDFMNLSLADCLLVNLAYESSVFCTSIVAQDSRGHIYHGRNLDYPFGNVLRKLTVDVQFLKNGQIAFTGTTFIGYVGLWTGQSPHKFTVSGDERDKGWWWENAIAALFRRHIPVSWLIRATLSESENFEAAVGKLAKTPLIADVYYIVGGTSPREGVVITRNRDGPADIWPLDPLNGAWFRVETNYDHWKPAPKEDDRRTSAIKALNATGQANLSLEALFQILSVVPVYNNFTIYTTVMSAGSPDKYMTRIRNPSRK

[2] = target: T2, Acid ceramidase (Homo sapiens) (UniProt Q13510); assay: Inhibition of human acid ceramidase expressed in HEK293 cells up to 30 uM using N-lauroyl- ceramide substrate by UPLC/MS analysis; assay type: cell-based
T2 sequence (whole entry): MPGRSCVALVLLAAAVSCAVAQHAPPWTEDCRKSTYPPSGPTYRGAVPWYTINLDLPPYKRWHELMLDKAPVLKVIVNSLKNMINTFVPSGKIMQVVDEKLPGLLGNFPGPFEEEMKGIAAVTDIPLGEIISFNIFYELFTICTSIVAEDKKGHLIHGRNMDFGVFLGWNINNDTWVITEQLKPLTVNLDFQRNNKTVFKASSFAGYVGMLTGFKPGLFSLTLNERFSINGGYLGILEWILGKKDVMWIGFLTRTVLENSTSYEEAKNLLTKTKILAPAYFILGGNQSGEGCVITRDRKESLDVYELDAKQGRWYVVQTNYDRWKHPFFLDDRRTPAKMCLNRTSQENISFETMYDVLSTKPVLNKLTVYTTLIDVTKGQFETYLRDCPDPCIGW

[3] = target: T1, N-acylethanolamine-hydrolyzing acid amidase (Homo sapiens); details: HEK293, 100 nM
[4] = target: T3, Fatty-acid amide hydrolase 1 (Rattus norvegicus) (UniProt P97612); assay: Inhibition of FAAH in rat brain homogenate using [3H]anandamide as substrate up to 30 uM after 30 mins by liquid scintillation counting; assay type: tissue-based
T3 sequence (whole entry): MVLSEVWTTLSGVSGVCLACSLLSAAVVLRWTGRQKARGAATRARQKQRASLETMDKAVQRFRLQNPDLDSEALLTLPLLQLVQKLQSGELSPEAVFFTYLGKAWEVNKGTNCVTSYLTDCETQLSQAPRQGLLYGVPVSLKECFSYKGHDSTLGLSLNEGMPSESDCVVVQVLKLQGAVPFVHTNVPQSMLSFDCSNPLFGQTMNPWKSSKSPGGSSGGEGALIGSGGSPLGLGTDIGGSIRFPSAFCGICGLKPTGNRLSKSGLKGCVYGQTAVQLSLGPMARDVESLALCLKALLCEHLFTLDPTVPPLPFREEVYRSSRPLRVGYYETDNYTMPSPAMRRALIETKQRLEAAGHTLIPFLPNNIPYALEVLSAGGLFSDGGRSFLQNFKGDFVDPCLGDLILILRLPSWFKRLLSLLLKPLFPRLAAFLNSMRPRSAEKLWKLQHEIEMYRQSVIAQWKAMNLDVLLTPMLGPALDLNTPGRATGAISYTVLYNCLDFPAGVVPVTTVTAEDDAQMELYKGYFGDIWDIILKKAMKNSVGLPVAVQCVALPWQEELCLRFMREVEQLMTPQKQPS

[5] = target: T4, N-acylethanolamine-hydrolyzing acid amidase (Homo sapiens, UniProt Q02083); assay: Inhibition of human recombinant His6-tagged NAAA expressed in HEK293 cells using 10-cis-heptadecenoylethanolamide as substrate after 30 mins by UPLC/MS analysis
T4 sequence (Q02083 whole entry): T1 sequence (whole entry)

[6] = target: T1, N-acylethanolamine-hydrolyzing acid amidase (Homo sapiens); assay: Binding affinity to human recombinant His6-tagged NAAA expressed in HEK293 cells assessed as formation of peptide adduct by MS/MS […] analysis; assay type: cell-based

inhibition [1] | inhibition [2] | inhibition [3] | inhibition [4] | IC50 [5] [nM] | Activity [6] | Structure (SMILES)
Active | inactive | Active | inactive | 7.3 |  | C[C@@H]1OC(=O)[C@@H]1NC(=O)OCCCCCc1ccccc1
 |  |  |  | 314 | Active | C[C@@H]1OC(=O)[C@@H]1NC(=O)CCCCCCc1ccccc1
